Measured values taken from US10183919B2 (priority 2014, dated 2019).
Where a name gives a salt, the structure may show the parent alone.

What follows are compounds tested against T1, Human MOR (Homo sapiens, UniProt P35372) (assay: cell-based). Settings: not given.
T1 construct: expressed in transfected cells; host or cells: HEK-293T
T1 sequence (P35372 whole entry): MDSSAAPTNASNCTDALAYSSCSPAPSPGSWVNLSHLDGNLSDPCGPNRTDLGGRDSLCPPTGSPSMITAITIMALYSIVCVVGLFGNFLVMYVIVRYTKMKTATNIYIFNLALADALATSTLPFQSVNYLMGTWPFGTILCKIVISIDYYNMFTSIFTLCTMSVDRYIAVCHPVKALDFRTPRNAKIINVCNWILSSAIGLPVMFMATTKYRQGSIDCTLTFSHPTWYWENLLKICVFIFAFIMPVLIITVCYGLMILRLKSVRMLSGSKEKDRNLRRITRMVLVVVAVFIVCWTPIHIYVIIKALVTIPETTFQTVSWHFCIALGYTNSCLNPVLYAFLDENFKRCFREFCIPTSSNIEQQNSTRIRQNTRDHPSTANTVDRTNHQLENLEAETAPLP
Excerpt: Transfection. Human or mouse MOR cDNA was transfected alongside GαoB with RLuc8 inserted at position 91 (GαoB-RLuc8), Gβ1 (β1), and Gγ2 fused to the full-length mVenus at its N terminus (mVenus-γ2) into HEK-293T cells (5×10^6 cells/plate) in 10-cm dishes using PEI (Polysciences Inc.; Warrington, Pa.) in a 1:1 ratio diluted in Opti-MEM (Life Technologies Corp.; Grand Island, N.Y.) to assay for G protein activation as described previously (Rives, M.-L. et al. J. Biol. Chem. 2012, 287, 27050-4; Negri, A.; Rives, M.-L.; Caspers, M. J. et al. J. Chem. Inf. Model. 2013, 53, 521-526). Cells were maintained in the Dulbecco's Modified Eagle Medium (high glucose #11965; Life Technologies) supplemented with 10% FBS (Premium Select, Atlanta Biologicals; Atlanta, Ga.) and 100 U/mL penicillin and 100 μg/mL streptomycin (#15140, Life Technologies). After 24 hours the media was changed, and the experiment was performed 24 hours later (48 hours after transfection).
BRET. Transfected cells were dissociated and resuspended in phosphate-buffered saline (PBS). Approximately 200,000 cells/well were added to a black-framed, white well 96-well plate (#60050; Perkin Elmer; Waltham, Mass.). The microplate was centrifuged and the cells were resuspended in PBS. Then 5 μM of the luciferase substrate coelenterazine H was added to each well for 5 minutes. Following coelenterazine H addition, ligands were added and the BRET signal was measured at 5 minutes on a PHERAstar FS plate reader. Quantification of the BRET signal required calculating the ratio of the light emitted by the energy acceptor, mVenus (510-540 nm), over the light emitted by the energy donor, RLuc8 (485 nm). […] Dose response curves were fit using three-parameter logistics equation in GraphPad Prism 6.
With `CCOC(=O)CCCCCCNC1c2ccc(Br)cc2S(=O)(=O)N(C)c2ccsc21` (stereo not drawn) [compound 74, Ethyl 7-((7-bromo-4-methyl-5,5-dioxido-4,10-dihydrobenzo[f]thieno[3,2-c][1,2]thiazepin-10-yl)amino)heptanoate] the EC50 was less than 10 µM. For `COCCCNC1c2ccccc2S(=O)(=O)N(C)c2ccsc21` (stereo not drawn) [compound 7, 10-((3-Methoxypropyl)amino)-4-methyl-4,10-dihydrobenzo[f]thieno[3,2-c][1,2]thiazepine 5,5-dioxide], the EC50 was less than 10 µM. Compound `CCOC(=O)CCCCCCNC1c2ccccc2N(CC)S(=O)(=O)c2ccccc21` (stereo not drawn) [compound 66, Ethyl 7-((6-ethyl-5,5-dioxido-6,11-dihydrodibenzo[c,f][1,2]thiazepin-11-yl)amino)heptanoate] has an EC50 of less than 10 µM. `COCCCNC1c2ccccc2N(C)S(=O)(=O)c2ccccc21` (stereo not drawn) [compound 10, 11-((3-Methoxypropyl)amino)-6-methyl-6,11-dihydrodibenzo[c,f][1,2]thiazepine 5,5-dioxide] showed an EC50 of less than 10 µM. Work on `CCSc1ccc2c(c1)S(=O)(=O)N(C)c1ccccc1C2NCCCOC` (stereo not drawn) [compound 64, 3-(Ethylthio)-11-((3-methoxypropyl)amino)-6-methyl-6,11-dihydrodibenzo[c,f][1,2]thiazepine 5,5-dioxide] yielded an EC50 of less than 10 µM. `COCCNC1c2ccccc2N(C)S(=O)(=O)c2cc(Cl)ccc21` (stereo not drawn) [compound 42, 3-Chloro-11-((2-methoxyethyl)amino)-6-methyl-6,11-dihydrodibenzo [c,f][1,2]thiazepine 5,5-dioxide] gave an EC50 of less than 10 µM. `COCCCNC1c2ccccc2N(C)S(=O)(=O)c2cc(I)ccc21` (stereo not drawn) [compound 48, 3-Iodo-11-((3-methoxypropyl)amino)-6-methyl-6,11-dihydrodibenzo [c,f][1,2]thiazepine 5,5-dioxide] was tested, and the EC50 was 0.0152 ± 0.0069 µM. `COCCCNC1c2ccccc2N(C)S(=O)(=O)c2cc(Br)ccc21` (stereo not drawn) [compound 53, 3-Bromo-11-((3-methoxypropyl)amino)-6-methyl-6,11-dihydrodibenzo[c,f] [1,2]thiazepine 5,5-dioxide] gave an EC50 of 0.0741 ± 0.0179 µM. `COCCCNC1c2ccccc2N(C)S(=O)(=O)c2cc(OC)ccc21` (stereo not drawn) [compound 27, 3-Methoxy-11-((3-methoxypropyl)amino)-6-methyl-6,11-dihydrodibenzo [c,f][1,2]thiazepine 5,5-dioxide] was tested, and the EC50 was less than 10 µM. `CN1c2ccccc2C(NCCCCCCC(=O)O)c2ccc(Br)cc2S1(=O)=O` (stereo not drawn) [compound 82, 7-((3-Bromo-6-methyl-5,5-dioxido-6,11-dihydrodibenzo[c,f][1,2]thiazepin-11-yl)amino)heptanoic acid hydrochloride salt] gave an EC50 of 0.122 µM. For `CCOC(=O)CCCCCCNC1c2ccccc2S(=O)(=O)N(C)c2c(OC)cccc21` (stereo not drawn) [compound 51, Ethyl 7-((7-methoxy-6-methyl-5,5-dioxido-6,11-dihydrodibenzo[c,f][1,2]thiazepin-11-yl)amino)heptanoate], the EC50 was less than 10 µM. `CCOC(=O)CCCCCCNC1c2ccccc2S(=O)(=O)N(C)c2ccsc21` (stereo not drawn) [compound 6, Ethyl 7-((4-methyl-5,5-dioxido-4,10-dihydrobenzo[f]thieno[3,2-c][1,2]thiazepin-10-yl)amino) heptanoate] showed an EC50 of less than 10 µM. In the case of `CN1c2ccccc2C(NCCCCCCC(N)=O)c2ccc(Cl)cc2S1(=O)=O` (stereo not drawn) [compound 52], the EC50 is reported as less than 10 µM. Compound `CCOC(=O)CCCCCCNC1c2ccccc2N(C)S(=O)(=O)c2ccc(Cl)cc21` (stereo not drawn) [compound 61, Ethyl 7-((2-chloro-6-methyl-5,5-dioxido-6,11-dihydrodibenzo[c,f] [1,2]thiazepin-11-yl)amino)heptanoate] has an EC50 of less than 10 µM. In the case of `CN1c2ccccc2C(NCC2CCOC2)c2ccc(Cl)cc2S1(=O)=O` (stereo not drawn) [compound 46], the EC50 is reported as less than 10 µM. Compound `COCCCNC1c2ccc(Cl)cc2S(=O)(=O)N(C)c2ccsc21` (stereo not drawn) [compound 77, 7-Chloro-10-((3-methoxypropyl)amino)-4-methyl-4,10-dihydrobenzo[f]thieno[3,2-c][1,2]thiazepine 5,5-dioxide] has an EC50 of less than 10 µM. Compound `COCCCNC1c2ccccc2N(C)S(=O)(=O)c2ccc(Cl)cc21` (stereo not drawn) [compound 60] has an EC50 of less than 20 µM. For `CCOCCCNC1c2ccccc2N(C)S(=O)(=O)c2cc(I)ccc21` (stereo not drawn) [compound 76, 11-((3-Ethoxypropyl)amino)-3-iodo-6-methyl-6,11-dihydrodibenzo [c,f][1,2]thiazepine 5,5-dioxide], the EC50 was 0.145 µM. `CN1c2ccccc2C(NCCCCCCC2=NCCO2)c2ccc(Cl)cc2S1(=O)=O` (stereo not drawn) [compound 58, 3-Chloro-11-((6-(4,5-dihydrooxazol-2-yl)hexyl)amino)-6-methyl-6,11-dihydrodibenzo[c,f][1,2]thiazepine 5,5-dioxide] showed an EC50 of less than 10 µM. `COCCCNC1c2ccccc2N(C)S(=O)(=O)c2cc(Oc3ccccc3)ccc21` (stereo not drawn) [compound 29, 11-((3-Methoxypropyl)amino)-6-methyl-3-phenoxy-6,11-dihydrodibenzo [c,f][1,2]thiazepine 5,5-dioxide] was tested, and the EC50 was less than 10 µM. `CC(C)OCCCNC1c2ccccc2N(C)S(=O)(=O)c2cc(Cl)ccc21` (stereo not drawn) [compound 35, 3-Chloro-11-((3-isopropoxypropyl)amino)-6-methyl-6,11-dihydrodibenzo [c,f][1,2]azepine 5,5-dioxide] gave an EC50 of less than 10 µM. In the case of `COC(C)CCNC1c2ccccc2N(C)S(=O)(=O)c2cc(Cl)ccc21` (mixture of isomers) [compound 67, 3-Chloro-11-((3-methoxybutyl)amino)-6-methyl-6,11-dihydrodibenzo [c,f][1,2]thiazepine 5,5-dioxide], the EC50 is reported as less than 10 µM. For `CCOC(=O)CCCCCCNC1c2ccccc2N(C)S(=O)(=O)c2cc(C)ccc21` (stereo not drawn) [compound 14, Ethyl 7-((3,6-dimethyl-5,5-dioxido-6,11-dihydrodibenzo[c,f][1,2]thiazepin-11-yl)amino) heptanoate], the EC50 was less than 10 µM. With `CN1c2ccccc2C(NCCCCCO)c2ccc(Cl)cc2S1(=O)=O` (stereo not drawn) [compound 30, 3-Chloro-11-((5-hydroxypentyl)amino)-6-methyl-6,11-dihydrodibenzo [c,f][1,2]thiazepine 5,5-dioxide] the EC50 was greater than 50 µM. `CCOC(=O)CCCCCCNC1c2ccccc2N(C)S(=O)(=O)c2cc(I)ccc21` (stereo not drawn) [compound 49, Ethyl 7-((3-iodo-6-methyl-5,5-dioxido-6,11-dihydrodibenzo[c,f][1,2]thiazepin-11-yl)amino)heptanoate] was tested, and the EC50 was 0.137 ± 0.017 µM. `COCCCNC1c2ccccc2S(=O)(=O)N(C)c2c(Br)csc21` (stereo not drawn) [compound 43, 3-Bromo-10-((3-methoxypropyl)amino)-4-methyl-4,10-dihydrobenzo[f]thieno[3,2-c][1,2]thiazepine 5,5-dioxide] gave an EC50 of less than 20 µM. With `COCCCNC1c2ccccc2N(C)S(=O)(=O)c2cc(C)ccc21` (stereo not drawn) [compound 15, 11-((3-Methoxypropyl)amino)-3,6-dimethyl-6,11-dihydrodibenzo[c,f][1,2]thiazepine 5,5-dioxide] the EC50 was less than 10 µM. `COCCCNC1c2ccc(Br)cc2S(=O)(=O)N(C)c2ccsc21` (stereo not drawn) [compound 72, 7-Bromo-10-((3-methoxypropyl)amino)-4-methyl-4,10-dihydrobenzo[f]thieno[3,2-c][1,2]thiazepine 5,5-dioxide] gave an EC50 of less than 10 µM. Work on `CCOC(=O)CCCCCCNC1c2ccc(Cl)cc2S(=O)(=O)N(C)c2ccsc21` (stereo not drawn) [compound 79, Ethyl 7-((7-chloro-4-methyl-5,5-dioxido-4,10-dihydrobenzo[f]thieno[3,2-c][1,2]thiazepin-10-yl)amino)heptanoate] yielded an EC50 of less than 10 µM.

Same assay, conditions: BRET G protein activation, HEK-293T; mean ± SEM of independent trials; read-out: EC50 Human MOR
In the case of `CCOC(=O)CCCCCCNC1c2ccccc2S(=O)(=O)N(C)c2c(O)cccc21` (stereo not drawn) [compound 62], the EC50 is reported as greater than 20 µM.
